± gives the expanded uncertainty stated by the source.
Conditions: Liquid, Ebulliometric method (Recirculating still)

SMILES	vapor or sublimation pressure (313.15 K)	vapor or sublimation pressure (323.15 K)	vapor or sublimation pressure (333.15 K)	vapor or sublimation pressure (343.15 K)	vapor or sublimation pressure (353.15 K)	vapor or sublimation pressure (363.15 K)
CCC [propane]	1374 ± 6 kPa	1712 ± 8 kPa	2115 ± 9 kPa	2586 ± 11 kPa	3151 ± 14 kPa	3767 ± 16 kPa
CC(F)(F)F [1,1,1-trifluoroethane]	1831 ± 9 kPa	2307 ± 10 kPa	2874 ± 13 kPa			
